Reference: ChEMBL document CHEMBL1933014, “Synthesis and antihyperglycemic evaluation of new 2,4-thiazolidinediones having biodynamic aryl sulfonylurea moieties” (2012)

tested on: Rattus norvegicus; assay: Antihyperglycemic activity in normal albino rat sucrose-loaded model assessed as inhibition of postprandial rise in blood glucose level at 100 mg/kg, po pretreated 30 mins before sucrose challenge measured for 2 hrs during oral glucose tolerance test; type: functional; set-up: scale not given: the % may be the effect or the level left

SMILES	Activity [%]
Cc1ccc(S(=O)(=O)NC(=O)NCC2SC(=O)NC2=O)cc1 (centres undefined)	11.5
O=C(NCC1SC(=O)NC1=O)NS(=O)(=O)c1ccccc1 (centres undefined)	15.8
O=C(NCC1SC(=O)NC1=O)NS(=O)(=O)c1ccc(Cl)cc1 (centres undefined)	17.2
O=C(NCC1SC(=O)NC1=O)NS(=O)(=O)c1ccc(F)cc1 (centres undefined)	10.7
O=C(NCC1SC(=O)NC1=O)NS(=O)(=O)c1ccc(Cl)cc1Cl (centres undefined)	14.3
O=C(NCC1SC(=O)NC1=O)NS(=O)(=O)c1cc(Cl)ccc1Cl (centres undefined)	16.5
O=C(NCC1SC(=O)NC1=O)NS(=O)(=O)c1ccc(Br)cc1Br (centres undefined)	8.66
O=C(NCC1SC(=O)NC1=O)NS(=O)(=O)c1ccc(Br)cc1 (centres undefined)	9.44
CN(C)C(=N)NC(=N)N [METFORMIN]	27
